Experiment [1] relates to RCC-A spheroids. In words: Cell survival rate assay on spheroid culture (CellTiter-Glo 3D). It is filed as cell-based, human. Conditions: SITA (100 μM) in combination with SUN, third day. From the text: (§1) After attaining the informed consent from the patients at Saitama Medical Center, Saitama Medical University, patient-derived cells (PDC) were produced from the tumors excised from the RCC patients. The tumor samples were processed with reference to the literature (Namekawa, T, et al. ALDH1A1 in patient-derived bladder cancer spheroids activates retinoic acid signaling leading to TUBB3 overexpression and tumor progression. Int. J. Cancer 146, 1099-1113 (2019)). The protocol of the research was approved by the Ethics Committee of Saitama Medical Center, Saitama Medical University (No. 1363-IV).
(§2) A cell survival rate of the cells 3 days after the drug treatment and siRNA transfection was evaluated by CellTiter-Glo 3D Assay (Promega K.K.).
(§3) FIGS. 2b to 2c depict the results of treating the RCC-A spheroids and the RCC-B spheroids with SITA (100 μM) and SUN. The data was presented as the mean value ±SD of the relative luciferase activity as analyzed by an ATP-based luciferase assay. […] In FIGS. 2b to 2c, moreover, “*” represents P<0.05.
(§4) The production of the spheroid ATP in the RCC-A cells or RCC-B cells treated with SUN alone or a combination of SUN and SITA on the third day was measured with the luciferase activity using the CEllTiter-Glo. […]

The test system of experiment [2] is RCC-B spheroids. The experiment is described as above. It counts as cell-based, human. Conditions: SITA (100 μM) in combination with SUN, third day.
From the text: as §1, §2, §3, §4

Experiment [3] has as its system 769-P cells. In words: 3D spheroid proliferation / cell survival rate assay. It counts as cell-based, human. Particulars: SITA alone, dose-response. The protocol: (§5) ACHN and 769-P, which were human RCC cell lines, were acquired from the American Type Culture Collection (ATCC), and those authenticated by short tandem repeat (STR) analysis performed by BEX CO., LTD. were used. The ACHN and 769-P cells were cultured on a DEME medium and a PRMI medium (NACALI TESQUE, INC.), respectively, to both of which 10% of FBS, 100 U/mL of penicillin, and 100 μg/mL of streptomycin were added, using an incubator set at 37° C. and 5% CO2. The ACHN and 769-P cells were exposed to sunitinib (SUN) at 10 μM max., for 6 months or longer, to produce SUN resistant RCC cell lines, ACHN-R and 769-P-R, respectively.
as §2
(§6) FIG. 4a depicts the results of ACHN-R and the parent cell line thereof. FIG. 4b depicts the results of 769-P-R and the parent cell line thereof. […] In FIGS. 4a to 4b, moreover, “ns” represents “no significant difference.”
(§7) FIGS. 4m to 4n are diagrams depicting the results studying how the DPP4 overexpression affects the cell survival rate of the RCC spheroids treated with SUN. ACHN cells (FIG. 4m) and 769-P cells (FIG. 4n), each stably expressing a control vector (vector #1 or #2) or DPP4 (DPP4 #1 or #2) were treated with SUN, and were analyzed by an ATP-based luciferase assay. […]

Experiment [4] has as its system ACHN cells. The description is as above. It counts as cell-based, human. Particulars: SITA alone, dose-response. Here is the method: as §5, §2, §6, §7
Experiment [5] deals with 769-P-R cells. The description is as above. It counts as cell-based, human. Here is the method: as §5, §2, §6
(§8) FIGS. 4c to 4f are diagrams depicting the results of studying the effect of the combination of SITA and SUN in the 3D culture of the ACHN cells (FIG. 4c), ACHN-R cells (FIG. 4d), 769-P cells (FIG. 4e), or 769-P-R cells (FIG. 4f). The concentration of SITA used was 100 μM. […] In FIGS. 4c, 4d, and 4f, moreover, […] represents P<0.05.
(§9) FIGS. 4g to 4j are diagrams depicting the results studying how the DPP4 knockdown by siRNA affects the therapeutic effects of SUN in the 3D culture of the ACHN cells (FIG. 4g), ACHN−R cells (FIG. 4h), 769-P cells (FIG. 4i), or 769-P-R cells (FIG. 4j). The data was represented as the means value±SD of the relative luciferase activity of each group of the spheroids, and n=3. […] In FIGS. 4h to 4j, moreover, “*” represents P<0.05.

Experiment [6] concerns ACHN-R cells. The experiment is described as above. It is filed as cell-based, human. The protocol: as §5, §2, §6, §8, §9
The test system of experiment [7] is IL6 mRNA. Nature of the experiment: IL6 mRNA level in 3D culture of ACHN-R cells (qRT-PCR). It is filed as cell-based, human. Conditions: SITA treatment versus vehicle, ACHN-R cells 3D culture. The protocol:
(§10) Extraction of RNA, synthesis of cDNA, and quantitative reverse-transcription polymerase chain reaction (qRT-PCR) were carried out according to the methods disclosed in “[…], et al. ALDH1A1 in patient-derived bladder cancer spheroids activates retinoic acid signaling leading to TUBB3 overexpression and tumor progression. Int. J. Cancer 146, 1099-1113 (2019).” FIGS. 4k to 4l depict the results studying how SITA treatment affects the IL6 mRNA level in the 3D cultures of the ACHN-R cells (FIGS. 4k) and 769-P-R cells (FIG. 4l), which are both SUN resistant cells. […] In FIGS. 4k to 4l, moreover, “*” represents P<0.05.

Experiment [8] has as its system IL6 mRNA. Nature of the experiment: IL6 mRNA level in 3D culture of 769-P-R cells (qRT-PCR). It counts as cell-based, human. Particulars: SITA treatment versus vehicle, 769-P-R cells 3D culture. The protocol:
as §10
On the technique in general: Real-time PCR tracks product formation cycle by cycle.

Experiment [9] relates to ACHN-R xenograft tumor. In words: Xenograft tumor model in nude mice. It counts as in vivo.
Protocol: Male nude mice (BALB/c-nu/nu, 6 weeks old) were acquired from CLAIR Japan, Inc. The ACHN cells and the ACHN−R cells were each subjected to trypsinization, followed by washing with PBS. Then, 5×10^6 cells of the ACHN cells or the ACHN−R cells were dispersed in 150 μL of Matrigel (BD Biosciences), and were subcutaneously inoculated in each mouse. The size of the tumor was measured every day. The tumor volume (V) was determined by measuring the length (L) and the width (W), and inserting the measured values in the following equation.
When the volume of the engrafted tumor reached 180 mm^3, SUN (20 mg/kg) was orally administered to the mice inoculated with the ACHN cells, and SUN (20 mg/kg) alone or two drugs, SUN (20 mg/kg) and DPP4 inhibitor sitagliptin (SITA) (30 mg/kg), were orally administered to the randomly selected mice inoculated with the ACHN-R cells. […] The drug was administered in a cycle consisting of 2 consecutive days of administration, followed by 1 day of washout.
At the point when the volume of the ACHN or ACHN−R xenograft nude mouse tumor reached 180 mm^3, oral administration of SUN alone, or a combination of SUN and SITA was started.
The data was presented as the mean SD, and n=6. […] The tumor volume was estimated by measuring the size of the tumor with Vernier calipers. […] In FIGS. 6a and 6b, moreover, “k” represents P<0.05.
Ki67 immunohistochemical staining of the excised tumor of each group was carried out to determine a ratio of Ki67 positive cells (Ki67 index). […] The scale bar is 50 μm. […] In FIG. 6g, moreover, “*” represents P<0.05.
The expression level was evaluated by qRT-PCR. […] In FIGS. 6h to 6l, moreover, “*” represents P<0.05.
The mark [10] stands for this setting: combination of SUN and SITA (100 μM).

Take `N[C@@H](CC(=O)N1CCn2c(nnc2C(F)(F)F)C1)Cc1cc(F)c(F)cc1F` [SITA, sitagliptin]: the “proliferation inhibition effect owing to SUN (cell survival rate, relative luciferase activity)” value in experiment [1] and in experiment [2] was “proliferation inhibition effect owing to SUN was enhanced” each time. For the same molecule, the spheroid proliferation result in experiment [3] is “did not affect the spheroid proliferation”; in experiment [4] it was “did not affect the spheroid proliferation”; in experiment [5] (SITA alone, dose-response), “did not affect the spheroid proliferation”; in experiment [5] (setting [10]), “suppressed the spheroid proliferation”; in experiment [6] (SITA alone, dose-response), “did not affect the spheroid proliferation”; in experiment [6] (setting [10]) it was “suppressed the spheroid proliferation”. Further, the “IL6 mRNA level” value in [7] and in experiment [8] was “reduced the expression of mRNA of IL6” each time. Also, the “Ki67 index (ratio of Ki67 positive cells)” value in experiment [9] (SITA and SUN in combination, ACHN-R xenograft tumor) is “reduced the Ki67 index”. Besides, the “sunitinib resistance of the RCC xenograft tumor” value in [9] (SITA in combination with SUN) was “contributed to overturn the sunitinib resistance”. In addition, the “expression of IL6 (mRNA level) in tumor” value in experiment [9] (SITA in combination with SUN, ACHN-R xenograft tumor) is on record as “expression of IL6 decreased”. Moreover, in [9] (SUN (20 mg/kg) and SITA (30 mg/kg) orally in combination, ACHN-R xenograft, 13th day), the “proliferation of the tumor (tumor volume, tumor weight)” value was “proliferation of the tumor was suppressed to the similar degree to the ACHN xenograft tumor”.

Values taken from patent publication US20240148736A1, “COMBINATION DRUG FOR TREATING RENAL CANCER AND POTENTIATOR FOR THERAPEUTIC EFFECTS OF TYROSINE KINASE INHIBITOR” (Saitama Medical University, priority 2020, published 2024).
